The text below walks through data of paper PMC7377239, “Cardiovascular Effects of Polychlorinated Biphenyls and Their Major Metabolites” (Environmental Health Perspectives, 2020).

Assay [1] relates to iCell endothelial cells (human iPSC-derived ECs). Description: High-content imaging cytotoxicity in iCell endothelial cells, 24 h. The settings on record: Homo sapiens, Endothelial cell, endothelial cells (endo), 24 hr. Format: cell-based. A digest of the protocol:
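Readouts were vehicle-normalised and fitted to a four-parameter logistic model. POD was set at one SD beyond 0.5% DMSO control means, and 100 µM was assigned when no response was seen. Cells were monolayers of iCell endothelial cells imaged after 24 h compound exposure using nuclear, mitochondrial and calcein dyes.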

Another assay has as its system HUVECs. Put plainly: High-content imaging cytotoxicity in HUVECs, 24 h. The note with it: Homo sapiens, HUVEC, 24 h, HUVEC, 24 hr. The class given is cell-based, human. In outline:
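Point-of-departure values come from four-parameter logistic fits of vehicle-normalized (0.5% DMSO) imaging readouts, cutoff one SD of vehicle means, 100μM where no concentration–response. Cells: HUVEC monolayers, passages 1–5, treated 24 h at 37°C, 5% CO2, then Hoechst 33342/MitoTracker Orange/calcein AM stained, imaged at 10×.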

Setting [2] is: cyto, read-out: POD endo.cyto.24hr.
Where [3] appears, read: mito, read-out: POD endo.mito.24hr.
Setting [4] is: mitoint, read-out: POD endo.mitoint.24hr.
Where [5] appears, read: nma, read-out: POD endo.nma.24hr.
Setting [6] is: cyto, read-out: POD huvec.cyto.24hr.
[7] abbreviates: mito, read-out: POD huvec.mito.24hr.
Where [8] appears, read: mitoint, read-out: POD huvec.mitoint.24hr.
[9] abbreviates: nma, read-out: POD huvec.nma.24hr.
[10] abbreviates: tc, read-out: POD huvec.tc.24hr.

Structures are written as SMILES. Where two headings read alike, the source gives them in different places.

On to `Oc1ccc(-c2cccc(Cl)c2)cc1Cl` [4-OH-PCB 11], for which the minimal effective concentration in assay [1] (setting [2]) stood at 43.6 µM; in assay [1] (setting [3]), 43.6 µM; in assay [1] (setting [4]), 13 µM; in assay [1] (setting [5]), 9.66 µM; in assay [1] (tc, read-out: POD endo.tc.24hr) it was 62.1 µM; with HUVECs (setting [6]), 1.37 µM. For the same compound, the minimal effective concentration with HUVECs (setting [7]) came out at 1.2 µM; with HUVECs (setting [8]), 5.43 µM; in the assay with HUVECs (setting [9]), 0.99 µM; in the assay with HUVECs (setting [10]) it was 1.37 µM.
On to `Oc1cc(Cl)c(-c2cc(Cl)ccc2Cl)cc1Cl` [4-OH-PCB 52], for which the minimal effective concentration in assay [1] (setting [2]) stood at 13.2 µM; in assay [1] (setting [3]), 13.2 µM; in assay [1] (setting [4]), 43.8 µM; in assay [1] (setting [5]), 63.5 µM; in assay [1] (tc, read-out: POD endo.tc.24hr) it was 16.6 µM; with HUVECs (setting [6]), 1 µM. For the same compound, the minimal effective concentration amounted to 1.1 µM in the assay on HUVECs (setting [7]), 2.32 µM in the assay with HUVECs (setting [8]), 100 µM in the assay on HUVECs (setting [9]) and 1 µM with HUVECs (setting [10]).
